This is an account of results in US20210060013A1, “Method for Preventing Triple Negative Breast Cancer in Predisposed Subjects” (Southern University of Science and Technology, priority 2019, published 2021).

Series [1] deals with PDGFRβ. As to the kind of experiment: Induced PDGFRβ pathway signaling in human mammary fibroblasts (Western blot). The series is classed as cell-based. Here is the method: SDS/PAGE and Western Blot Analysis. The labeling performance of probe 1 to various bait proteins was characterized by high-resolution SDS/PAGE using the PROTEAN II xi Cell electrophoresis instrument (gel size, 16×20 cm; Bio-Rad) and Coomassie brilliant blue staining. Equal amounts of protein were separated by SDS/PAGE and transferred to membranes. Membranes were blocked in 5% (wt/vol) BSA and then incubated with a primary antibody overnight at 4° C., followed by an incubation with an HRP-conjugated anti-rabbit or anti-mouse secondary antibody (Cell Signaling Technology). Proteins were visualized using a Western ECL Substrate Kit (Bio-Rad). The primary antibodies used in this study were streptavidin-HRP (Thermo Fisher), anti-4G10 (Merck Millipore), anti-His (Cell Signaling Technology), anti-EGFR (Cell Signaling Technology), anti-ERBB2 (Cell Signaling Technology), anti-PDGFRB (Cell Signaling Technology), anti-p-STAT3 (Cell Signaling Technology), anti-p-AKT (Cell Signaling Technology), anti-AKT (Cell Signaling Technology), anti-p-ERK 1/2 (Cell Signaling Technology), anti-ERK 1/2 (Cell Signaling Technology), and anti-β-actin (Beyotime).
In addition, the ability of the present invention to block PDGFR signaling in a conditioned media in vitro system was investigated. […]
For orientation: Immunoblotting shows a protein as a band on a membrane.

Series [2] concerns other known RTKs (e.g., VEGFR or fibroblast growth factor receptor) or serine/threonine kinases (e.g. Abl, Raf). The conditions noted are these: at concentrations that are used clinically; cited from earlier work.
The test system of series [3] is inflammatory breast cancer cells. The following applies: in vitro; cited from earlier work.
The next series relates to MMTV-PyMT mice. As to the kind of experiment: MMTV-PyMT mouse model of breast cancer, preventive crenolanib treatment. It is filed as in vivo. The following applies: for tumor growth (tumor volumes by calipers) vs vehicle-treated mice: measured every 5 d, beginning at day 10, FIGS. 1A, 1B. Here is the method:
FIGS. 1A to 1C show the ability of the present invention to prevent the development of mammary tumors in a subject genetically predisposed and at high risk of developing breast cancer. MMTV-PyMT mice were administered crenolanib starting at 8 weeks of age, before the development of palpable mammary tumors. FIG. 1A: Mice were treated with 20 mg/kg crenolanib, dissolved in vehicle, intraperitoneally once daily for 35 days. FIG. 1B: Tumor sizes were measured using digital calipers every 5 days during treatment and volumes were calculated using a standard formula ((length×width)/2)). Control mice were treated with vehicle alone. FIG. 1C: At the end of crenolanib treatment, mice were sacrificed, and final tumor weight was determined.
In the MMTV-PyMT mouse model of breast cancer, the Polyoma Virus middle T antigen is expressed under the control of the mouse mammary tumor virus promoter, which results in spontaneous formation of mammary tumors in female mice. This model effectively recapitulates all of the stages of human disease, and mice develop tumors begin developing palpable mammary tumors at approximately 13 weeks of age (Guy, Cardiff, & Muller, 1992). Therefore, the MMTV-PyMT model is a highly reproducible and highly faithful model for the development of TNBC.
Animal Studies. All animal procedures were approved by the Institutional Animal Care and Use Committee at Southern University of Science and Technology. Twelve 8-wk-old female MMTV-PyMT mice were divided into six groups. The two mice in each group were littermates. Each group of mice was treated with crenolanib (20 mg/kg, dissolved in vehicle; Selleck) or vehicle [5% (vol/vol) glycerol formal; Sigma] intraperitoneally once daily for 35 d. Once palpable, tumor sizes were measured with a digital caliper every 5 d, and the volumes were calculated using the formula (length×width)/2. Data were reported as means±SE. At the end of crenolanib treatment, mice were killed, and tumors were harvested and weighted.
In vivo analysis also validated that PDGFRB was prominently expressed in tumor associated stromal cells, including spindle-shaped fibroblasts, but not in tumor tissues by using the polyoma middle T (PyMT) oncogene-driven breast cancer mouse model, which mimics all identifiable stages of human breast cancer progression (28) (data not shown). […] To further analyze the paracrine effects of breast cancer cells on fibroblast expansion, the inventors assessed the ligand secretion by breast cancer cells (data not shown). […] Tumor volumes in crenolanib-treated and untreated mice were measured every 5 d after dosing initiation. […] In addition, tumor weight per mouse at sacrifice (12 wk) was 55% lower in crenolanib-treated mice than in vehicle-treated mice (FIG. 1C).

Series [4] deals with PDGFRβ (Homo sapiens, UniProt P09619). The following applies: cited from earlier work.
The target in the next series is PDGFRα (Homo sapiens, UniProt P16234). The conditions noted are these: cited from earlier work.
The conditions of series [5]: in vivo; cited from earlier work.
Where [6] appears, read: treatment starting at 8 weeks of age, before palpable mammary tumors.

PDGFRβ (Homo sapiens, UniProt P09619), sequence (P09619 33-1106): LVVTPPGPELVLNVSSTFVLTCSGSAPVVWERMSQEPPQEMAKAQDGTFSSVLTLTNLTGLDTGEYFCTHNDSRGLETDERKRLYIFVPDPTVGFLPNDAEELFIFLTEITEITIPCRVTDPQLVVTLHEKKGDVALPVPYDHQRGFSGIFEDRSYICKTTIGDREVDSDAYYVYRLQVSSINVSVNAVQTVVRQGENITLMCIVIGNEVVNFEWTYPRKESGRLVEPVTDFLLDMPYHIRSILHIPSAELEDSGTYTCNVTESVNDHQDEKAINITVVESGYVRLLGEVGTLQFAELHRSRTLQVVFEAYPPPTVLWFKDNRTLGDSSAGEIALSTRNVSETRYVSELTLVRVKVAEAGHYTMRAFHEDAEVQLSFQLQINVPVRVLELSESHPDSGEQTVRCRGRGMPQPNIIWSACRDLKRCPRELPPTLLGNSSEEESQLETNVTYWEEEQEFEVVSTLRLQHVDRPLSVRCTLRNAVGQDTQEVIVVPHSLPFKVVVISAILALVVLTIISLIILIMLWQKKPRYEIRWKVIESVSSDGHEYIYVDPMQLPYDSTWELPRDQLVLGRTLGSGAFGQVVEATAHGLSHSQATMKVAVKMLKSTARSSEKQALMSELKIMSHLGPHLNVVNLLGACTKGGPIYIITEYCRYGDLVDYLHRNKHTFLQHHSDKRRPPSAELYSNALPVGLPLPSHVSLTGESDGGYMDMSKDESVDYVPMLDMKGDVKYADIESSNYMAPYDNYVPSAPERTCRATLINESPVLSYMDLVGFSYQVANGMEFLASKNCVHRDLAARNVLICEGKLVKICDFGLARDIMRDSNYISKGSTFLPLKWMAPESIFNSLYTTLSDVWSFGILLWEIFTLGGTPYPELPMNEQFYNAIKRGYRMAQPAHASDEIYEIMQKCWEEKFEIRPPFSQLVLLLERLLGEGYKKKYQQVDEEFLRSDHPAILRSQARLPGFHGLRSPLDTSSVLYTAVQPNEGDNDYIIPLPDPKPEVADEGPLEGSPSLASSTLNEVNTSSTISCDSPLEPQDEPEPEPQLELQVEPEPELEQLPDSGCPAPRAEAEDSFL
PDGFRα, sequence (P16234 24-1089): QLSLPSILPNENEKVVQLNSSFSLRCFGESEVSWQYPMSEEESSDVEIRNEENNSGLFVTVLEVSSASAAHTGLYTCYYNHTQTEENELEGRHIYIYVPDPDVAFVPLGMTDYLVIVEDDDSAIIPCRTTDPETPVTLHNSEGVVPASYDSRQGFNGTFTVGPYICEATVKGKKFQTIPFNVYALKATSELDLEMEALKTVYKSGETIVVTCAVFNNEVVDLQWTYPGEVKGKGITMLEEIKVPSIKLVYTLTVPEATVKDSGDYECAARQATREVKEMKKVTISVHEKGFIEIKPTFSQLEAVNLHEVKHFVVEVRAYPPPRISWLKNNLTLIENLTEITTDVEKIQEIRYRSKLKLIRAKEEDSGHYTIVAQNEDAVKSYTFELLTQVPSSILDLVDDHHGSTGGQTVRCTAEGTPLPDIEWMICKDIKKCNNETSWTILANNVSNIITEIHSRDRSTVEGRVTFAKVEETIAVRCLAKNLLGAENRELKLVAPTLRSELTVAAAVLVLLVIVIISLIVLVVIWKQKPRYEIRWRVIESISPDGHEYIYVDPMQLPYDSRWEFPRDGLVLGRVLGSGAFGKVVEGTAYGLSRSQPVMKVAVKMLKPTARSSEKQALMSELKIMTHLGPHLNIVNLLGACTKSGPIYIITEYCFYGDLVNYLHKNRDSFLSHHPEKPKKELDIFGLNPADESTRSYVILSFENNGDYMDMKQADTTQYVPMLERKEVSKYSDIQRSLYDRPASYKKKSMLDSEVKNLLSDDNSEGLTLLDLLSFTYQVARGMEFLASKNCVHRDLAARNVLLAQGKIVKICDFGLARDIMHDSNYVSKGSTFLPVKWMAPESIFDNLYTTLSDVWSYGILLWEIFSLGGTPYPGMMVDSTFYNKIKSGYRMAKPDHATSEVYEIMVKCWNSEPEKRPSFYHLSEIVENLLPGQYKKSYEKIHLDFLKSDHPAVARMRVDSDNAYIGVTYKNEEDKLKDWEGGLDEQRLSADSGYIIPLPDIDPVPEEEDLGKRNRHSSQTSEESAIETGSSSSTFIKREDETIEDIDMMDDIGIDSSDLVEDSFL

For `CC1(COc2ccc3c(c2)ncn3-c2ccc3cccc(N4CCC(N)CC4)c3n2)COC1` [crenolanib, 4-Piperidinamine, 1-[2-[5-[(3-methyl-3-oxetanyl)methoxy]-1H-benzimidazol-1-yl]-8-quinolinyl]], the “downstream pathway signaling (phosphorylated AK and ERK 1/2)” value in the series with PDGFRβ [1] (human mammary fibroblasts pre-treated, conditioned media from MDA-MB-468 cells, FIG. 2) was “inhibited”. In the series on PDGFRβ [1] (human mammary fibroblasts pretreated with crenolanib, conditioned media from TNBC cell line MDA-MB468, FIG. 2 left half), the “increase in PDGFRβ signaling induced by conditioned media” value was “blocked this increased signaling”. In addition, the “inhibition of other known RTKs or serine/threonine kinases” value in series [2] is “does not inhibit”. Further, in series [3], the “growth of inflammatory breast cancer cells” value is recorded as “inhibits the growth”. The “tumor weight per mouse at sacrifice, lower than in vehicle-treated mice” value in the series on MMTV-PyMT mice (20 mg/kg intraperitoneally once daily for 35 d from 8 wk of age, at sacrifice (12 wk), FIG. 1C) came out at 55%. Further, in the series on MMTV-PyMT mice (20 mg/kg intraperitoneally once daily for 35 d from 8 wk of age), the “tumor growth (tumor volumes by calipers) vs vehicle-treated mice” value is “grew significantly more slowly”. Also, the “tumor growth (tumor volumes by calipers) vs vehicle-treated mice” value in the series with MMTV-PyMT mice (20 mg/kg intraperitoneally once daily for 35 d from 8 wk of age, listed as the present invention) was “significantly prevented tumor growth”. For the same molecule, in the series on MMTV-PyMT mice (setting [6]), the number of tumors entry is “reduced”, the tumor volume result is “reduced” and the tumor weight result is listed as “reduced”. Also, on PDGFRβ [4], the “inhibition of PDGFRβ” value was “highly selective inhibitor”.
In the case of crenolanib besylate, on PDGFRα, the “inhibition of PDGFRα” value is listed as “ability to inhibit”. Further, the “inhibition of PDGFRβ” value on PDGFRβ [4] is reported as “ability to inhibit”. Also, the oral bioavailability entry in series [5] is “orally bioavailable”.
